The data set in a line: Serum amikacin after single oral administration by gavage. It counts as in vivo, male Harlan Sprague Dawley albino rats. The note with it: rat, 20 mg amikacin per rat. The protocol: The lipid-only, 1:1 lipid/polymer and the polymer-only pharmaceutical compositions with amikacin encapsulated therein, or unencapsulated amikacin as a solution at pH 8 was administered orally by gavage to 300 g male Harlan Sprague Dawley albino rats. The number of animals per group was six. The dose was 20 mg per rat and the volume was 2 mL. Serum was collected via venipuncture (saphenous vein) from unanesthetized animals at 15, 45, 90 min., 3, 8, 24, and 48 hours. The specimens were kept at −40° C. until analysis.
The concentration of amikacin in serum was determined using a competitive particle concentration fluorescence immunoassay. Polystyrene beads (Idexx Research Product Division, Memphis, Tenn.) were first coated with anti-amikacin antibody (The Binding Site, San Diego, Calif.). The beads were incubated with a combination of fluorescent-labeled amikacin (The Binding Site) and serum containing amikacin which compete for the anti-amikacin antibody sites on the beads. The amount of fluorescent-labeled amikacin bound to the beads was measured by a fluorescence concentration analyzer (Idexx Research Product Division) which is inversely proportional to the amikacin concentration in serum.

With `NCC[C@H](O)C(=O)N[C@@H]1C[C@H](N)[C@@H](O[C@H]2O[C@H](CN)[C@@H](O)[C@H](O)[C@H]2O)[C@H](O)[C@H]1O[C@H]1O[C@H](CO)[C@@H](O)[C@H](N)[C@H]1O` [unencapsulated amikacin, amikacin], the “peak level of the concentration of amikacin in circulation” value came to 1.82 ± 0.73 µg/mL and the “time at which peak circulatory levels were reached” value came out at 45 min.

The values above are taken from patent US6793938B2, “Biodegradable compositions for the controlled release of encapsulated substances” (Skye Pharma, Inc., priority 1998, dated 2004).
